Reference: ChEMBL document CHEMBL1124775 (J Med Chem, 1990)
pKd: −log10 of the molar value.

Species on record: Rattus norvegicus
Experiment: Binding of [3H]diprenorphine to rat brain membranes was evaluated and the dissociation constant (KD) was determined.
Set-up: species or system Membrane

C=CCN1CC[C@]23c4c5ccc(O)c4O[C@H]2C(=O)CC[C@@]3(O)[C@H]1C5 [NALOXONE]
pKd: 8.00
